Reference: ChEMBL document CHEMBL1201862, “PubChem BioAssay data set” (2004)
Activity calls are given as the source filed them.

Key:
[1] = biological target: T1, Heat shock factor protein 1 (Mus musculus, UniProt P38532); experiment: HSF1 potentiators in luciferase reporter cells, confirmation, cell-based, NIH3T3, luminescence, dose retest (AID 435004); assay type: functional;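 note: stress induced by proteasome inhibitor MG132 added 30 min after compound; luciferase reporter driven by HSF1 response element in NIH3T3 cells; actives raise luminescence as potentiators of the MG132 stress response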
T1 sequence (P38532 whole entry): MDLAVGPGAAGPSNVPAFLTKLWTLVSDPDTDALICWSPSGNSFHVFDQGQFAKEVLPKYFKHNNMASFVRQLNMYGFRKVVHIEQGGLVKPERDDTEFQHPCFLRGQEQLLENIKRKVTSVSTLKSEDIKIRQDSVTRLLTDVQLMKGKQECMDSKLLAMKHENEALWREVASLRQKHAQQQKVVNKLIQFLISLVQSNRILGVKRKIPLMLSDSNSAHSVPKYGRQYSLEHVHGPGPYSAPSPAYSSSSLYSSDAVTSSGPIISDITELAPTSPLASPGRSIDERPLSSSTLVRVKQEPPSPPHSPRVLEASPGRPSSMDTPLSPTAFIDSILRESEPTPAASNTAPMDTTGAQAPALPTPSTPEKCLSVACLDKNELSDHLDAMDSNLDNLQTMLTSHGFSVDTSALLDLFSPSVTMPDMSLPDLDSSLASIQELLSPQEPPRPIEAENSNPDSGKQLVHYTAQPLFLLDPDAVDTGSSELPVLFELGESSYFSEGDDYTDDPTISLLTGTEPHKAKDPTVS

[2] = cells
[3] = biological target: T2, Oxysterols receptor LXR-beta (Homo sapiens, UniProt P55055); assay type: functional, cell-based
T2 sequence (P55055 whole entry): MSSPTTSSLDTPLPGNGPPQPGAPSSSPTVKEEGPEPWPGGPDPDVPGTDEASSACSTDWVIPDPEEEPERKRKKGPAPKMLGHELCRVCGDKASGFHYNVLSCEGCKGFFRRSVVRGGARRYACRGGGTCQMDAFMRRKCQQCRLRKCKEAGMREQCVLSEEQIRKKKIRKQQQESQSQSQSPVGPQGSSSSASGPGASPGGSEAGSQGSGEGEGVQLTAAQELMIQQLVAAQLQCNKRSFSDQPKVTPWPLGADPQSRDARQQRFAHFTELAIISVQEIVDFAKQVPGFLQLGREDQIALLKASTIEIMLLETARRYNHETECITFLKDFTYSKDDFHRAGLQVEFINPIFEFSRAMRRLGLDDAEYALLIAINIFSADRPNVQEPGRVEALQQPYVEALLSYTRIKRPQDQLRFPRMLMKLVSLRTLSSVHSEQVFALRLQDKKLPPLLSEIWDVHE

[4] = P. falciparum late gametocyte killing, dose response, luminescence (AID 1117278); assay type: functional, cell-based;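 note: gametocytes exposed to compound for 24 hours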
[5] = Jurkat T cell cytotoxicity, dose response, cytotoxicity control for P. falciparum gametocyte viability project, luminescence (AID 1117277); assay type: functional, cell-based;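 note: potency reflects loss of cellular ATP meaning fewer viable cells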
[6] = cells; remark: listed apart in the source
[7] = cytotoxicity toward NIH3T3 fibroblasts, dose response, counter-screen, cell-based, ATP luminescence, mouse fibroblasts (AID 2010); assay type: functional;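 note: cells exposed to compound for about 90 hours before reading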
[8] = inhibitors of intracellular T. cruzi replication, confirmation, NIH3T3 host cells, beta-gal luminescence (AID 2044); assay type: functional, cell-based;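 note: intracellular parasites grown in NIH/3T3 mouse fibroblasts as host cells; luminescent beta-galactosidase reporter signal from transgenic T. cruzi replicating inside host cells; inhibitors lower the luminescence signal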
[9] = biological target: T3, Nuclear receptor subfamily 0 group B member 1 (Homo sapiens, UniProt P51843); assay type: functional, cell-based;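 note: HEK293T cells transfected with SF-1 and DAX-1 plus StAR promoter luciferase reporter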
T3 sequence (P51843 whole entry): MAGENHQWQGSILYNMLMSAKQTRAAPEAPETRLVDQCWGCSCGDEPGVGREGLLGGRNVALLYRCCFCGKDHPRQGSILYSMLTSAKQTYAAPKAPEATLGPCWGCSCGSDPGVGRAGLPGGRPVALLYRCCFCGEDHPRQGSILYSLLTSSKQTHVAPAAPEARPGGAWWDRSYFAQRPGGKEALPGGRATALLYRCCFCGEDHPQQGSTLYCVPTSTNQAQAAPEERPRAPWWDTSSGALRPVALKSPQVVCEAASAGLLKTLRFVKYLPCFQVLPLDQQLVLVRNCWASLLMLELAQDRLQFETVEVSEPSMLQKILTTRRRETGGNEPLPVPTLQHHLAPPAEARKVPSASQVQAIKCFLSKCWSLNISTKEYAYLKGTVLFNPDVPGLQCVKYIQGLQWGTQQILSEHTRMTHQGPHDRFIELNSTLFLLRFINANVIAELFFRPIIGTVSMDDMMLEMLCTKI

[10] = cells; assay type: functional, cell-based
[11] = biological target: T4, Calpain-2 catalytic subunit (Sus scrofa, UniProt P43367); experiment: pig calpain II inhibitor potency, dose response, biochemical, fluorogenic peptide substrate (AID 1420); assay type: functional
T4 sequence (P43367 whole entry): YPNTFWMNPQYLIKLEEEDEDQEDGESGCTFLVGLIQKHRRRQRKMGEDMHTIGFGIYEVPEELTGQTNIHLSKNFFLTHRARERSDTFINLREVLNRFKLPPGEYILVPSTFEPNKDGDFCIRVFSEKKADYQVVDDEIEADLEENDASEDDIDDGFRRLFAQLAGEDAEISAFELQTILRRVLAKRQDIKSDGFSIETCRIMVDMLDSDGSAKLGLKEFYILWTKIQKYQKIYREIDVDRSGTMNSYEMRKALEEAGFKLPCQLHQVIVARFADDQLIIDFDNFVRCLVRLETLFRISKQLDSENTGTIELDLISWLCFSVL

[12] = biological target: T2, Oxysterols receptor LXR-beta; assay type: functional, cell-based; remark: listed apart in the source
[13] = biological target: T2, Oxysterols receptor LXR-beta; experiment: LXR agonists, Gal4 luciferase reporter, dose response, counter-screen for ssDAF-12 agonist project, cell-based, luminescence, HEK293, S. stercoralis campaign (AID 720737); assay type: functional; conditions: read-out: IC50 (the source's name)
[14] = Luminescence-based cell-based high throughput dose response assay to identify activators of the DAF-12 from the parasite S. stercoralis (ssDAF-12).; assay type: functional
[15] = P. falciparum Dd2 growth inhibitors, dose response, SYBR Green, cherry-picked samples (AID 1159567); assay type: functional, cell-based
[16] = HepG2 cell cytotoxicity, dose response, cytotoxicity control, cherry-picked samples (AID 1159577); assay type: functional, cell-based
[17] = HepG2 cell cytotoxicity, dose response, cytotoxicity control, cherry-picks, set 5 (AID 1053118); assay type: functional, cell-based
[18] = A549 cell cytotoxicity, dose response, cytotoxicity control, cherry-picks, 26 µM top dose (AID 1053119); assay type: functional, cell-based
[19] = HEK293 cell cytotoxicity, dose response, cytotoxicity control, cherry-picks, set 5 (AID 1053117); assay type: functional, cell-based
[20] = LGR2 antagonists, dose response, cell-based, HEK293, CRE-luciferase reporter, cherry pick, set 2 (AID 743343); assay type: functional;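 note: transfected cells were stimulated with diluted bursicon conditioned medium after compound addition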
[21] = A549 cell cytotoxicity, dose response, cytotoxicity control, plate reader, cherry-pick, antagonist series (AID 743412); assay type: functional, cell-based
[22] = P. falciparum Dd2 growth inhibitors, dose response, SYBR Green, dry powder samples (AID 1159566); assay type: functional, cell-based;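 note: potency for growth inhibition with lower SYBR green DNA signal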
[23] = HepG2 cell cytotoxicity, dose response, cytotoxicity control, plate reader, dry powder samples (AID 1159569); assay type: functional, cell-based;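 note: inhibitor potency with signal falling toward the positive control level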
[24] = P. falciparum ATP4 D1247Y mutant growth inhibitors, dose response, NITD609-resistant line, SYBR Green, dry powder (AID 1159571); assay type: functional, cell-based;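 note: parasites synchronized at ring stage by sorbitol before testing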
[25] = P. falciparum 3D7-ScDHODH growth inhibitors, dose response, SYBR Green, dry powder samples (AID 1159570); assay type: functional, cell-based;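 note: parasite growth measured after 72 hours of compound exposure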
[26] = ARNT/TACC3 interaction disruptors, potency, confirmation, biochemical, AlphaScreen, cherry-picked samples (AID 651703); assay type: functional, Homo sapiens;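 note: His-tagged ARNT PAS-B domain paired with GST-TACC3 E629A dimer coactivator fragment; potency of inhibitors that break up the complex and lower AlphaScreen signal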

## CC(C)c1ccc(-n2cnn(-c3ncccc3[N+](=O)[O-])c2=O)cc1
[1]
  EC50: > 260 µM (inactive)
[2]
  EC50: > 67.5 µM (inactive)
[3]
  EC50: > 67.5 µM (inactive)

## NCCN1CCN(CCN)CC1
[4]
  IC50: > 109 µM (inactive)
[5]
  IC50: > 83.4 µM (inactive)

## CCc1ccc(CN2CCCC(CCC(=O)N3CCN(c4ccccn4)CC3)C2)o1 (stereo unspecified)
[6]
  EC50: 0.021 µM (active)
[7]
  EC50: > 60 µM (not active)
[8]
  EC50: < 0.1 µM (active)

## Oc1ccccc1-c1cc(-c2ccc3c(c2)OCCO3)[nH]n1
[9]
  IC50: 17.6 µM (inactive)
[10]
  IC50: > 67.6 µM (inactive)
[11]
  IC50: > 50 µM (not active)
[12]
  EC50: > 67.6 µM (inactive)

## O=c1[nH][nH]c2cc(=O)n(-c3cccc(C(F)(F)F)c3)nc12
[1]
  EC50: > 260 µM (inactive)
[13]
  EC50: > 67.5 µM (inactive)
[14]
  IC50: > 67.5 µM (inactive)

## CO[C@@H]1CN(C)C(=O)c2ccc(NC(=O)c3ccc(-c4ccccc4)cc3)cc2OC[C@H](C)NC[C@@H]1C
[15]
  AC50: 4.99 µM (active)
[16]
  AC50: 8.05 µM (active)
[17]
  AC50: 12.2 µM (active)
[18]
  AC50: 16.2 µM (active)
[19]
  AC50: 18.1 µM (active)

## NCC[C@H]1CC[C@H](NS(=O)(=O)Cc2ccccc2)[C@@H](CO)O1
[20]
  AC50: 40.7 µM (active)
[21]
  AC50: > 52 µM (inactive)

## N#C[C@H]1[C@H](c2ccc(-c3cccc(F)c3)cc2)[C@H](CO)N1C(=O)c1cccnc1
[15]
  AC50: 1.16 µM (active)
[16]
  AC50: > 39 µM (inactive)
[22]
  AC50: 0.641 µM (active)
[23]
  AC50: 76.8 µM (active)
[24]
  AC50: 0.69 µM (active)
[25]
  AC50: 1.33 µM (active)

## COCC(=O)Nc1ccc2c(c1)C(=O)N(C)C[C@H](OC)[C@H](C)CN(Cc1cc(F)ccc1F)[C@@H](C)CO2
[15]
  AC50: 2.25 µM (active)
[22]
  AC50: 1.18 µM (active)
[23]
  AC50: > 100 µM (inactive)
[24]
  AC50: 1.84 µM (active)
[25]
  AC50: 13.1 µM (active)

## COc1ccc(-c2oc3cc(O)c(OC)c(O)c3c(=O)c2OC)cc1O [CENTAUREIDIN]
[9]
  IC50: 35 µM (inactive)
[26]
  AC50: 101 µM (active)
[10]
  IC50: > 67.5 µM (inactive)
